Assay results from patent US5935958A, “Muscarinic antagonists” (Schering Corporation, priority 1997, dated 1999).

Tests used:
[1] = molecular target: T1, cloned human m2 muscarinic receptor (Homo sapiens, UniProt P08172); experiment: Muscarinic binding, inhibition of 3H-QNB binding, m2; conditions: for m1/m2 (Ki ratio): Ki for m1 receptors divided by Ki for m2 receptors, higher ratio = greater m2 selectivity; for m4/m2 (Ki ratio): Ki for m4 divided by Ki for m2; for m1/m2 and m4/m2 ratios, in words: tests reported in Table 1
T1 construct: expressed in transfected cells; host or cells: CHO (stably transfected), membranes
T1 sequence (P08172 1-466): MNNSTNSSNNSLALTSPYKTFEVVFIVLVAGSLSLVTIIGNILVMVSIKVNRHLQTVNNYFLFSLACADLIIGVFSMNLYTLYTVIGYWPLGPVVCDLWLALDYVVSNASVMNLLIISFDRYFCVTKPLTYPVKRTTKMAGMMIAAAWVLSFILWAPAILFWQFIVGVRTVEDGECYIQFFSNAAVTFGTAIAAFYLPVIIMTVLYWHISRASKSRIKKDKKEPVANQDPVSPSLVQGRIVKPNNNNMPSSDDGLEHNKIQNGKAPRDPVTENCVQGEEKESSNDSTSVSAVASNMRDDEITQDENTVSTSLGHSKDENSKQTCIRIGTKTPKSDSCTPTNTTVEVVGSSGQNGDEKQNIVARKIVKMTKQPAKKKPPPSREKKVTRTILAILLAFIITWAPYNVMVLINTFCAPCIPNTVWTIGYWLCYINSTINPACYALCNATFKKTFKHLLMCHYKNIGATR

m2 muscarinic = conditions: Baumgold et al., Eur. J. Pharmacol., 251 (1994) 315-317; cited from earlier work
[2] = molecular target: T2, cloned human m4 muscarinic receptor (Homo sapiens, UniProt P08173); experiment: Muscarinic binding, inhibition of 3H-QNB binding, m4; conditions: CHO cell membranes, 25° C., 90 minutes
T2 construct: expressed in transfected cells; host or cells: CHO (stably transfected), membranes
T2 sequence (P08173 1-479): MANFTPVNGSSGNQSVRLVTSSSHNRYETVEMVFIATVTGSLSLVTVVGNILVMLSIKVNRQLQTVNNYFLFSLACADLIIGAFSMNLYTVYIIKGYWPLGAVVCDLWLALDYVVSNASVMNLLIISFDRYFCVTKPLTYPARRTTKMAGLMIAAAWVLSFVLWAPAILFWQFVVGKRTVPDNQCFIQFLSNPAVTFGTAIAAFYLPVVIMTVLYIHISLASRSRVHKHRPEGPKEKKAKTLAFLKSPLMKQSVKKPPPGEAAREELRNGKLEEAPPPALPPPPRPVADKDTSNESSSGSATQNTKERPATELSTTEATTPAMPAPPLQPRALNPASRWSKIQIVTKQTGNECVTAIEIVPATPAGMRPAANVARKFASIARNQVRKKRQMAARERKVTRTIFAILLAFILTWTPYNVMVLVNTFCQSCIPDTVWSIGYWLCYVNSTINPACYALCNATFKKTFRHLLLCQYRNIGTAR

[3] = molecular target: T3, cloned human m1 muscarinic receptor (Homo sapiens, UniProt P11229); experiment: Muscarinic binding, inhibition of 3H-QNB binding, m1; conditions: CHO cell membranes, 25° C., 90 minutes
T3 construct: expressed in transfected cells; host or cells: CHO (stably transfected), membranes
T3 sequence (P11229 1-460): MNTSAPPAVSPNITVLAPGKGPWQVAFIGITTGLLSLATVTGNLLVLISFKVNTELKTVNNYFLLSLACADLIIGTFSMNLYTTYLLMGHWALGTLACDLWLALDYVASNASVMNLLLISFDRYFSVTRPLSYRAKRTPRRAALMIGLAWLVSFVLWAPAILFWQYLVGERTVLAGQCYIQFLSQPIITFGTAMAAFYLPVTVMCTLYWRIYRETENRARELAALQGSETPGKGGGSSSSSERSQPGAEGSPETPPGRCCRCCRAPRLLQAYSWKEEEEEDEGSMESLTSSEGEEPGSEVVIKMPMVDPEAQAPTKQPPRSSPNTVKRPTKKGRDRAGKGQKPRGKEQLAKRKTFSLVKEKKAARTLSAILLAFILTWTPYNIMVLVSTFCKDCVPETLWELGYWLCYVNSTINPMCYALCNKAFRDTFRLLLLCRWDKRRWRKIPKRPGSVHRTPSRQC

Structure (SMILES) | m1/m2 (Ki ratio) [1] | m4/m2 (Ki ratio) [1] | further results
c1cnc(Oc2ccc3c(c2)CCC3N2CCN(C3CCCCC3)CC2)nc1 (single isomer, unassigned) [Compound 10] | 13.2 | 1.5 | m1/m2 and m4/m2 ratios, in words [1]: useful values of the m1/m2 and m4/m2 ratios
c1cnc(Oc2ccc3c(c2)CCC3N2CCN(C3CCCCC3)CC2)nc1 (single isomer, unassigned) [Compound 11] | 3.6 |  | 
COc1ccc(S(=O)(=O)c2ccc3c(c2)CCC3N2CCN(C3CCCCC3)C[C@H]2C)cc1 (single isomer, unassigned) [Compound 14] | 18.4 | 2.6 | m1/m2 and m4/m2 ratios, in words [1]: useful values of the m1/m2 and m4/m2 ratios
COc1ccc(S(=O)(=O)c2ccc3c(c2)CCC3N2CCN(C3CCCCC3)C[C@H]2C)cc1 (single isomer, unassigned) [Compound 15] | 11.2 | 2.5 | m1/m2 and m4/m2 ratios, in words [1]: useful values of the m1/m2 and m4/m2 ratios
C[C@H]1CC[C@@H]2N(C1)C[C@H]1[C@@H]3C[C@H]4[C@@H](CC(=O)[C@H]5C[C@@H](Cl)CC[C@@]54C)[C@@H]3CC[C@H]1[C@]2(C)O [3-α-chloroimperialine] |  |  | m2 muscarinic antagonist selectivity, in words (m2 muscarinic): highly selective m2 muscarinic antagonist
O=S(=O)(c1ccccc1)c1ccc2c(c1)CCC2N1CCN(CCO)CC1 (stereo not shown) [Compound 1] | 4.5 | 1.3 | 
O=[N+]([O-])c1ccc(Oc2ccc3c(c2)OCCC3N2CCN(C3CCCCC3)CC2)cc1 (stereo not shown) [Compound 2, 1-Cyclohexyl-4-[7-[(4-nitrophenyl)oxy]-chroman-4-yl]-piperazine] | 1.5 |  | 
Nc1ccc(Oc2ccc3c(c2)OCCC3N2CCN(C3CCCCC3)CC2)cc1 (stereo not shown) [Compound 3] | 0.6 | 0.3 | 
CC(=O)Nc1ccc(Oc2ccc3c(c2)OCCC3N2CCN(C3CCCCC3)CC2)cc1 (stereo not shown) [Compound 4] | 1.0 | > 0.9 | 
c1cnc(Oc2ccc3c(c2)CCCC3N2CCN(C3CCCCC3)CC2)nc1 (stereo not shown) [Compound 5, 4-Cyclohexyl-1-piperazinyl-[6-[(2-pyrimidinyl)oxy]]-1,2,3,4-tetrahydro-naphthalene] | 7.5 | 1.6 | 
O=[N+]([O-])c1ccc(Oc2ccc3c(c2)CCCC3N2CCN(C3CCCCC3)CC2)cc1 (stereo not shown) [Compound 6] | 6.6 | 0.8 | 
Nc1ccc(Oc2ccc3c(c2)CCCC3N2CCN(C3CCCCC3)CC2)cc1 (stereo not shown) [Compound 7] | 4.0 | 0.8 | 
c1cnc(Oc2ccc3c(c2)CCCCC3N2CCN(C3CCCCC3)CC2)nc1 (stereo not shown) [Compound 8] | 3.3 | 0.9 | Ki ([1]; 3H-QNB binding, CHO cell membranes, 25° C., 90 minutes): 27 nM; Ki [2]: 23 nM; Ki [3]: 88 nM
c1cnc(Oc2ccc3c(c2)CCC3N2CCN(C3CCCCC3)CC2)nc1 (stereo not shown) [Compound 9] | 7.7 |  | m1/m2 and m4/m2 ratios, in words [1]: useful values of the m1/m2 and m4/m2 ratios
c1cnc(Oc2ccc3c(c2)CC(CC2CCCCC2)C3N2CCN(C3CCCCC3)CC2)nc1 (stereo not shown) [Compound 12, 2-[[1-(4-Cyclohexyl-1-piperazinyl)-2-(cyclohexylmethyl)-2,3-dihydro-1H-inden-5-yl]oxy]pyrimidine] | 1.9 |  | 
COc1ccc(S(=O)(=O)c2ccc3c(c2)CCC3N2CCC(N3CCCCC3)CC2)cc1 (stereo not shown) [Compound 13] | 4.0 | 2.0 | 
